# Laboratory results from ChEMBL document CHEMBL1201862, “PubChem BioAssay data set” (2004).
# The source made the active and inactive calls.
# Experiments:
# HEK293 = test: EBV LMP1 TES2 canonical NF-kB signalling blockers – cell-based, HEK293, luciferase, cherry-pick, dose response (AID 588343); format: functional; settings: Homo sapiens
# [1] = reduction of Shn3 3'UTR-driven luciferase in osteoblasts – cell-based, Clone20 osteoblasts, firefly luciferase, cherry-picked, dose response (AID 624132); format: functional;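 note: firefly luciferase luminescence from reporter carrying the Shn3 3'UTR in osteoblasts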
# [2] = loss of viability in HepG2 cells – cell-based, CellTiter-Glo, cherry-picked, cytotoxicity control for Shn3 inhibitor project, dose response (AID 624134); format: functional
# [3] = non-specific 3'UTR reporter inhibition in Clone20-Shn3RL – cell-based, Renilla luciferase, cherry-picked, counter-screen for Shn3 inhibitor project, dose response (AID 624133); format: functional
# Prothrombin = Prothrombin (Homo sapiens, UniProt P00734); test: Thrombin 1536 HTS Dose Response Confirmation. [Related pubchem assays: 1046 (Thrombin 1536 HTS; hits were confirmed in this assay)]; format: functional
# Cytochrome P450 1A2 = target: T1, Cytochrome P450 1A2 (Homo sapiens, UniProt P05177);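 note: PubChem cytochrome P450 panel assay, CYP1A2 panel member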
# T1 sequence (P05177 whole entry): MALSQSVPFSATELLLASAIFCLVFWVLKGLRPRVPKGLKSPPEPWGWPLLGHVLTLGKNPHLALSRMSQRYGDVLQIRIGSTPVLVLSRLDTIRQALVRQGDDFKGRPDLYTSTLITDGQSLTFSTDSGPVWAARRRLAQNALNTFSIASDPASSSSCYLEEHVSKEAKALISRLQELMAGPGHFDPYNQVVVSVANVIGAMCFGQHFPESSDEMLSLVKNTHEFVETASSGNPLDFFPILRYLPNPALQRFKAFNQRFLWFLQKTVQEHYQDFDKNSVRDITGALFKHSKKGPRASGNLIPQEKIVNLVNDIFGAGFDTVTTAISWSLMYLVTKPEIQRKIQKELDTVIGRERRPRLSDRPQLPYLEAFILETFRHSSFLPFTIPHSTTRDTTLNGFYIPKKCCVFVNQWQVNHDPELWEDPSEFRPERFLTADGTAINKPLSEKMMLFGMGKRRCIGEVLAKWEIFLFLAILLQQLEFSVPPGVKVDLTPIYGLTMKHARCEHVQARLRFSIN
# Cytochrome P450 2C9 [4] = target: T2, Cytochrome P450 2C9 (Homo sapiens, UniProt P11712)
# T2 sequence (P11712 whole entry): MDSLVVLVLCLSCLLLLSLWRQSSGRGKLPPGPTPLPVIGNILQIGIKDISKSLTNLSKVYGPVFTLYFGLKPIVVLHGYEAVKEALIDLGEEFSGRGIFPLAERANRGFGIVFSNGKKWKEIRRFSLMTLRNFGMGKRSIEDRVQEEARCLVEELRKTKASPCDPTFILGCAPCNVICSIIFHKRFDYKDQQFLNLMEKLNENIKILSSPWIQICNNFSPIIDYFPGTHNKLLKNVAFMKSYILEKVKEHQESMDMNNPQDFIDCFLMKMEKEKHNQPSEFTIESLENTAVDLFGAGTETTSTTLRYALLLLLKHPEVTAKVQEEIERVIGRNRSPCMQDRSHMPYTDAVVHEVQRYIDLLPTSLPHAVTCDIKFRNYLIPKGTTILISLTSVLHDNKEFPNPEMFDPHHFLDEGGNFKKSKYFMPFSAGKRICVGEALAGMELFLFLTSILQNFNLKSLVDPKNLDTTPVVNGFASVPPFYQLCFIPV
# [5] = target: Induced myeloid leukemia cell differentiation protein Mcl-1 (Homo sapiens, UniProt Q07820); format: functional
# Induced myeloid leukemia cell differentiation protein Mcl-1, sequence (Q07820 whole entry): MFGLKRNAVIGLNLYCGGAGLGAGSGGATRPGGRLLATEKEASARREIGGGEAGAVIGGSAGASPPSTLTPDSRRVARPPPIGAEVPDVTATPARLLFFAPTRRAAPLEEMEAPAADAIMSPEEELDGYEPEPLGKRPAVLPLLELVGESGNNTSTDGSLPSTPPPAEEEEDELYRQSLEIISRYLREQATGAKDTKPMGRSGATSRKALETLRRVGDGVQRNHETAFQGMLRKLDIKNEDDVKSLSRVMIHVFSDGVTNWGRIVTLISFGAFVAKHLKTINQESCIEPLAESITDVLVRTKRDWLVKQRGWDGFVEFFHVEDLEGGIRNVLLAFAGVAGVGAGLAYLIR
# [6] = A cytotoxicity screen of small molecule inhibitors of the PhoP region in Salmonella typhi identified in the primary screen. [Related pubchem assays: 1850, 1864, 1985 ]; format: functional
# [7] = target: DNA dC->dU-editing enzyme APOBEC-3A (Homo sapiens, UniProt P31941); test: Dose Response confirmation of small molecule APOBEC3A DNA Deaminase Inhibitors via a fluorescence-based single-stranded DNA deaminase assay. [Related pubchem assays (depositor defined):AID493011, AID493024]; format: functional
# DNA dC->dU-editing enzyme APOBEC-3A, sequence (P31941 whole entry): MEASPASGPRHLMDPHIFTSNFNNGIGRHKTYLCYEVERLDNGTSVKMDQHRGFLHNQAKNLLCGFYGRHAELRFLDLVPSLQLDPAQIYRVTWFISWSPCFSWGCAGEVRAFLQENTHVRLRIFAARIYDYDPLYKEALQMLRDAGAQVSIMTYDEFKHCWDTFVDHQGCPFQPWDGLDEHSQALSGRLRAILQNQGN
# [8] = target: DNA dC->dU-editing enzyme APOBEC-3G (Homo sapiens, UniProt Q9HC16); format: functional;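 note: Dose-response counterscreen measuring inhibition of APOBEC3G DNA deaminase activity, run while confirming APOBEC3A inhibitors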
# DNA dC->dU-editing enzyme APOBEC-3G, sequence (Q9HC16 whole entry): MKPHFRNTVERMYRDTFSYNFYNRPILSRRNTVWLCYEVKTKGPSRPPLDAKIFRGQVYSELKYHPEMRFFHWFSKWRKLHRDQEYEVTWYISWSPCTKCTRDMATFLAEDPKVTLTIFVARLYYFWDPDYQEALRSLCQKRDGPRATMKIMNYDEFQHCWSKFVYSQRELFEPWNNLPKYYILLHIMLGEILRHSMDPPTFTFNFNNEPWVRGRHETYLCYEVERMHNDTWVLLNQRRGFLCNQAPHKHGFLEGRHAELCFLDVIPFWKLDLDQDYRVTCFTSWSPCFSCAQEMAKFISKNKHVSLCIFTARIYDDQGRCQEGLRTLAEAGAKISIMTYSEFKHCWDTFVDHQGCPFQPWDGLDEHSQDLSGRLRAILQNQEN
# [9] = target: Luciferin 4-monooxygenase (Photinus pyralis, UniProt P08659); test: inhibition of purified Photinus pyralis luciferase – biochemical, luminescence, dose response (AID 1891)
# Luciferin 4-monooxygenase, sequence (P08659 whole entry): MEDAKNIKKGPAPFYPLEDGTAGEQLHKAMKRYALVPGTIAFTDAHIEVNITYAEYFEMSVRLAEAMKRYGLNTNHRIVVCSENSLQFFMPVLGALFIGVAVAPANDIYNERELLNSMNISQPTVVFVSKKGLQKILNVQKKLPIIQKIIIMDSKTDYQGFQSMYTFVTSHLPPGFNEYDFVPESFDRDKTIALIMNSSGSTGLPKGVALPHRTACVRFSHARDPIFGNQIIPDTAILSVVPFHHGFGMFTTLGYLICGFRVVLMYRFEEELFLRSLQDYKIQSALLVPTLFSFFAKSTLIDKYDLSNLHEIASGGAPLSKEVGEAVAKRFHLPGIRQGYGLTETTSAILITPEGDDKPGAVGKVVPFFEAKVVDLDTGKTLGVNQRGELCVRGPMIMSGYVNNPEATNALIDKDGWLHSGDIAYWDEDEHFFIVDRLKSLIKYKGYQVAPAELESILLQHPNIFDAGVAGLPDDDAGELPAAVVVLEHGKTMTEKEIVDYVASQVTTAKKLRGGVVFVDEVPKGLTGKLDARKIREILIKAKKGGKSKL
# [10] = Luminescence Cell-Based Dose Confirmation HTS to Identify Inhibitors of Platelet Dense Granule Release. [Related pubchem assays: 1663 (Primary HTS), 1678 (Summary of Project)]; format: functional
# [11] = target: T3, Endoribonuclease toxin MazF (Escherichia coli K-12, UniProt P0AE70); test: activation of MazEF endoribonuclease cleavage – biochemical, fluorescence, single-stranded RNA substrate, uHTS hits, dose response (AID 588481); format: functional
# T3 sequence (P0AE70 whole entry): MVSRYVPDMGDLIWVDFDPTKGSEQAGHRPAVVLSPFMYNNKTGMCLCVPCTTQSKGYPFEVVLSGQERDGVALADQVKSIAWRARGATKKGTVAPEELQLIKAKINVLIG
# [12] = target: T3, Endoribonuclease toxin MazF; test: substrate-only fluorescence increase artefacts – biochemical, single-stranded RNase substrate, counter-screen for MazEF activator project, dose response (AID 588502); format: functional
# Genome polyprotein = Genome polyprotein (dengue virus type 2, UniProt P29990); test: flavivirus cap methylation enzyme inhibition – biochemical, confirmation dose response, primary screen (AID 588689); format: functional
# Genome polyprotein, sequence (P29990 2492-3391 limits assumed): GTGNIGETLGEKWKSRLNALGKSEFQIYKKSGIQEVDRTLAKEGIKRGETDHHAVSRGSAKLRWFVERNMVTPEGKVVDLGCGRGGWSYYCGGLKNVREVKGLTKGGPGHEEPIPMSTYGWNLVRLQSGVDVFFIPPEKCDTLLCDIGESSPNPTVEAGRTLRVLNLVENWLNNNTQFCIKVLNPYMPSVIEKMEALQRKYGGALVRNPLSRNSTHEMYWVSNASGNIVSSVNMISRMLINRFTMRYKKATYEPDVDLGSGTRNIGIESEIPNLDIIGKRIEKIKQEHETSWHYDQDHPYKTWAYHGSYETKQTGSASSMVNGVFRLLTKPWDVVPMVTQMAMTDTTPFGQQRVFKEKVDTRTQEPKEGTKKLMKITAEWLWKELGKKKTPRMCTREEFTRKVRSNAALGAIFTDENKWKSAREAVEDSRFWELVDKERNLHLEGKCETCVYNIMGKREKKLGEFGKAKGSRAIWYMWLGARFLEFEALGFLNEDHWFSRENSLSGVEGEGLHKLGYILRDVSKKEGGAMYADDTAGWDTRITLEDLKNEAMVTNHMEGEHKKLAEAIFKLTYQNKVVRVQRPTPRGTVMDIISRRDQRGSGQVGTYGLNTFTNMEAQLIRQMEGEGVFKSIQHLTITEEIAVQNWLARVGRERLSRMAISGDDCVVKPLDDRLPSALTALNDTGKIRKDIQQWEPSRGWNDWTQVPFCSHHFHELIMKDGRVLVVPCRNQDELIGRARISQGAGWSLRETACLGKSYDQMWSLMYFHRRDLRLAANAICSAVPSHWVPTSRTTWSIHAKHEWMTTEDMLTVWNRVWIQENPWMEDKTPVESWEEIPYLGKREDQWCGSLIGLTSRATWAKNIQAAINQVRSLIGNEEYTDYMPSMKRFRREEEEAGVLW
# [13] = target: T4, Carboxy-terminal domain RNA polymerase II polypeptide A small phosphatase 1 (Homo sapiens, UniProt Q9GZU7); test: CTDSP1 inhibitors, concentration-response, biochemical, absorbance readout, ultra-high-throughput screen actives (AID 540297); format: functional
# T4 sequence (Q9GZU7 whole entry): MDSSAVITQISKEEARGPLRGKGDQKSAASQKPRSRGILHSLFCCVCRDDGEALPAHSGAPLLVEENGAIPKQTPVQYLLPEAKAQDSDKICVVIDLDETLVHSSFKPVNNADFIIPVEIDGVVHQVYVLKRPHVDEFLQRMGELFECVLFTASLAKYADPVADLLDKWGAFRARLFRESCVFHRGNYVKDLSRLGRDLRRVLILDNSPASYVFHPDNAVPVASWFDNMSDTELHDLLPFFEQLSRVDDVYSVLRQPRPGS
# Paired box protein Pax-8 = Paired box protein Pax-8 (Homo sapiens, UniProt Q06710); test: PAX8 transcriptional activity inhibition in RMG-I – RMG-I cells, luciferase, cherry-pick, dose response (AID 687027); format: functional, cell-based;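 note: luciferase reporter driven by Pax8 target thyroperoxidase promoter measured by SteadyGlo luminescence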
# Paired box protein Pax-8, sequence (Q06710 whole entry): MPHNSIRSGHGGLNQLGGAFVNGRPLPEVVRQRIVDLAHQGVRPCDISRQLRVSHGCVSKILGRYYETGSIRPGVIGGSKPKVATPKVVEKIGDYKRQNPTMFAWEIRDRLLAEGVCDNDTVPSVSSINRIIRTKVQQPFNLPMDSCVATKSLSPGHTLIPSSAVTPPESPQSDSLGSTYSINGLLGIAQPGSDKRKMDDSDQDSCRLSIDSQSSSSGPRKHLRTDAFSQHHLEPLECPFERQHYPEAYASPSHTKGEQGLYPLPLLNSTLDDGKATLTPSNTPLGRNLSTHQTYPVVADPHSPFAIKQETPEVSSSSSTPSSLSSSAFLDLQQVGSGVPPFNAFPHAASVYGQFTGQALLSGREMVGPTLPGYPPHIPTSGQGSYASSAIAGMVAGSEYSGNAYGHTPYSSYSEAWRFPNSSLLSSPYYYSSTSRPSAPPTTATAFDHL
# [14] = OVCAR8 cell viability loss – plate reader, dry powder samples, PAX8 project, dose response (AID 743197); format: functional, cell-based; settings: OVCAR-8
# [15] = test system: Streptococcus sp. 'group A'; test: Streptococcus pyogenes SK(-)GAS viability under kanamycin – luminescence, BacTiterGlo, confirmation, counter-screen for streptokinase expression inhibitor project, dose response (AID 1900); format: functional, organism-based
# Streptococcus = test: GAS UMAA2166 growth inhibition – luminescence, BacTiterGlo, counter-screen for streptokinase expression inhibitor project, dose response (AID 1915); format: functional, organism-based;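 note: potency for reduction of bacterial viability or growth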
# [16] = target: Heat shock protein HSP 90-alpha (Homo sapiens, UniProt P07900); format: functional, organism-based
# [17] = toxicity toward HepG2 liver cells – cell-based, plate reader, cherry-pick, antagonist series, cytotoxicity control, dose response (AID 743416); format: functional
# [18] = blockers of bursicon-stimulated LGR2 cAMP reporter – cell-based, HEK293, CRE-luciferase reporter, cherry pick, set 2, dose response (AID 743343); format: functional;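 note: transfected cells were stimulated with diluted bursicon conditioned medium after compound addition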
# [19] = blockade of melanocortin 4 receptor signaling – cell-based, plate reader, cherry pick, counter-screen for LGR2 antagonist project, dose response (AID 743444); format: functional;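 note: transfected HEK 293 cells stimulated with alpha-MSH peptide; potency of inhibitors of the alpha-MSH evoked signal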
# [20] = viability loss in HEK293 cells – cell-based, plate reader, cherry-picked samples, cytotoxicity control, dose response (AID 743446); format: functional
# Cytochrome P450 2C19 = Cytochrome P450 2C19 (Homo sapiens, UniProt P33261); test: Cytochrome panel assay with activity outcomes. Panel member name: p450-cyp2c19 Compounds with AC50 equal or less than 10 uM are considered active; format: functional; settings: read-out: AC50
# Cytochrome P450 2C19, sequence (P33261 whole entry): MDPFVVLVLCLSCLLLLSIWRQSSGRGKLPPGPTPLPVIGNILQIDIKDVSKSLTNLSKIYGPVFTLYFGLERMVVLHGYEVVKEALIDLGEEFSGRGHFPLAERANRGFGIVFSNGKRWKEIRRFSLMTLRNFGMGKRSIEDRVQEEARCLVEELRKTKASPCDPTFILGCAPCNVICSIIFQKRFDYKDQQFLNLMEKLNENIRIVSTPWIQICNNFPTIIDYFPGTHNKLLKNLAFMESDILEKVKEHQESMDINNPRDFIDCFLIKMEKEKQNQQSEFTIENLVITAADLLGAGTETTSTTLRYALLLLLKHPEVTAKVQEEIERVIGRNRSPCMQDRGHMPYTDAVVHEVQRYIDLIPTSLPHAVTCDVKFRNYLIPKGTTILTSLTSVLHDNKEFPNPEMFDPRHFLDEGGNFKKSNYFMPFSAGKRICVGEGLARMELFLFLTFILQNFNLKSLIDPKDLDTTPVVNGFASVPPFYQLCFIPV
# Cytochrome P450 3A4 = Cytochrome P450 3A4 (Homo sapiens, UniProt P08684);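 note: CYP3A4 tested as one member of a cytochrome P450 panel screen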
# Cytochrome P450 3A4, sequence (P08684 whole entry): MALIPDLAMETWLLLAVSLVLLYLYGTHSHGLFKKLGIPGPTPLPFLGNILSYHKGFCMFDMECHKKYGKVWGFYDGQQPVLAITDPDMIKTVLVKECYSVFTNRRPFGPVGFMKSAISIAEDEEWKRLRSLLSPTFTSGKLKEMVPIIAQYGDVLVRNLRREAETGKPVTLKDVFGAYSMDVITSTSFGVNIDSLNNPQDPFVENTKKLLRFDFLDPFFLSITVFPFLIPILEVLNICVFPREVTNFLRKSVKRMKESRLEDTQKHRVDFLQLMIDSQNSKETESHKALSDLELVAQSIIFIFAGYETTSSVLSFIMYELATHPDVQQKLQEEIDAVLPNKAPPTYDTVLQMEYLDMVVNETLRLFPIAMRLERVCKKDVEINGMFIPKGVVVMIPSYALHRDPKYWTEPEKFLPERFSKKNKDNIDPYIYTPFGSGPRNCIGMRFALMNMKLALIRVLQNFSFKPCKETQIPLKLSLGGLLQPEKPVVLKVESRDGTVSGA
# Cytochrome P450 2C9 [21] = target: T2, Cytochrome P450 2C9; remark: listed apart in the source
structure (smiles),measurement,setting,value
CN(C)c1ccc(C=Cc2ccnc3c(O)cccc23)cc1,AC50,HEK293,10 µM (active)
same,AC50,[1],1.43 µM (active)
same,AC50,[2],52.7 µM (active)
same,AC50,[3],2.57 µM (active)
CCN1CCN(CC(=O)c2cc(OC)c(OC)c(OC)c2)CC1,IC50,Prothrombin,> 50 µM (not active)
CCN1C[C@]2(COC(=O)c3ccccc3N3C(=O)C[C@H](C)C3=O)CC[C@H](OC)[C@]34[C@@H]5C[C@@H]6[C@H](OC)[C@H]5[C@](O)(C[C@@H]6OC)C(O)([C@@H]13)[C@@H](OC)[C@@H]24,AC50,Cytochrome P450 1A2,39.8 µM (inconclusive)
same,AC50,Cytochrome P450 2C9 [4],inconclusive
O=C(NOCc1ccccc1)c1ccc(Cl)cc1Cl,AC50,HEK293,3.33 µM (active)
COc1cc(C2C3=C(O)c4ccccc4C3=Nc3nc(N)nc(O)c32)ccc1O (stereo not drawn),IC50,[5],2.76 µM (active)
O=[N+]([O-])c1ccc(N2CCNCC2)cc1NCc1cccnc1,EC50,[6],> 50 µM (active)
CCN1C(NCCOC)=N[C@@H](c2cccs2)C(C(=O)OC)=C1C,IC50,[7],4.37 µM (active)
same,IC50,[8],8.01 µM (active)
CC(=O)c1c(C)[nH]c(C(=O)CSc2nnc(-c3ccc(Cl)cc3)n2CC2CCCO2)c1C (stereo not drawn),EC50,[6],> 50 µM (active)
same,EC50,[9],> 112 µM (not active)
same,EC50,[10],> 112 µM (not active)
O=C1C(=Cc2cccn2-c2ccc(O)cc2)C(=O)c2ccccc21,EC50,[11],> 99 µM (inactive)
same,EC50,[12],50.3 µM (inactive)
same,IC50,Genome polyprotein,10.1 µM (active)
NC(=O)c1ccc(-n2nnnc2SCC(=O)Nc2ccccc2F)cc1,EC50,[11],> 99 µM (inactive)
same,EC50,[12],> 99 µM (inactive)
Cc1ccc(C=C2C(=O)c3ccccc3C2=O)o1,EC50,[11],> 99 µM (inactive)
same,EC50,[12],85.2 µM (inactive)
same,IC50,[13],6.25 µM (active)
COc1ccc(CN2[C@H](CO)[C@H]3c4ccccc4NC[C@H]32)cc1,AC50,Paired box protein Pax-8,11.2 µM (active)
same,AC50,[14],> 70 µM (inactive)
CN(Cc1ccccc1)CC(O)COc1ccc(CNCCCOc2cccnc2)cc1 (stereo not drawn),EC50,[6],> 50 µM (active)
COC(=O)C1=C(C)N(Cc2ccccc2)C(NCCCCO)=N[C@H]1c1cccc(C(F)(F)F)c1,IC50,[7],4.94 µM (active)
same,IC50,[8],7.1 µM (active)
Cn1cnc(C(=O)N2CCN(c3ccccc3)CC2)c1C(=O)N1CCN(c2ccccc2)CC1,IC50,[7],2.75 µM (active)
same,IC50,[8],6.53 µM (active)
same,IC50,[13],7.05 µM (active)
O=C(Nc1nc(-c2ccccn2)cs1)c1ncc(Cl)c(Cl)c1Cl,EC50,[15],0.39 µM (active)
same,EC50,Streptococcus,1.64 µM (active)
same,AC50,[16],3.55 µM (active)
O=C1CCCC(O)=C1Sc1ccccc1C(=O)O,IC50,[7],13.3 µM (active)
same,IC50,[8],43.8 µM (active)
O=C(c1ccccc1)n1nnc2ccccc21,IC50,Prothrombin,0.431 µM (active)
O=C(Nc1ccccc1)c1cn2ccccc2n1,AC50,HEK293,3.47 µM (active)
same,AC50,[17],> 52 µM (inactive)
same,AC50,[18],6.06 µM (active)
same,AC50,[19],6.74 µM (active)
same,AC50,[20],48.4 µM (active)
CC(C)c1ccc2oc(=O)cc(CN3CCN(c4ccc(F)cc4)CC3)c2c1,EC50,[6],> 50 µM (active)
Cc1ccc(NC(=O)c2sccc2C)cc1[N+](=O)[O-],EC50,[6],> 50 µM (active)
Nc1c(C(=O)C2CC2)sc2nc(-c3cccs3)cc(C(F)(F)F)c12,EC50,[11],> 99 µM (inactive)
same,EC50,[12],10.6 µM (active)
Cc1ccc(/C=C2\SC(=S)N(CCC(=O)Nc3cccnc3)C2=O)cc1,EC50,[11],> 99 µM (inactive)
same,EC50,[12],> 99 µM (inactive)
COc1ccccc1OC(C)C(=O)N1CCN(Cc2ccc3c(c2)OCO3)CC1 (stereo not drawn),IC50,[7],7.43 µM (active)
same,IC50,[8],8.33 µM (active)
CN1C(=O)NC(c2ccc(O)cc2)C(C(=O)c2cccs2)C1(O)C(F)(F)F (stereo not drawn),EC50,[6],> 50 µM (active)
same,AC50,Cytochrome P450 2C19,15.8 µM (inconclusive)
same,AC50,Cytochrome P450 3A4,25.1 µM (inconclusive)
same,AC50,Cytochrome P450 2C9 [21],39.8 µM (inconclusive)
CCCCC(=O)NC(=S)Nc1cccc(NC(=O)CC)c1,AC50,Cytochrome P450 1A2,15.8 µM (inconclusive)
same,AC50,Cytochrome P450 3A4,20 µM (inconclusive)
same,AC50,Cytochrome P450 2C9 [4],inconclusive
CC(C[N+](C)(C)C)OC(=O)C1(c2ccccc2)CCCC1 (stereo not drawn),IC50,[7],2.56 µM (active)
same,IC50,[8],3.58 µM (active)
CC1=C(C(=O)Nc2ccccc2)C(c2ccc(O)cc2)N2C(=O)CSC2=N1 (stereo not drawn),IC50,Prothrombin,25.2 µM (active)
Cc1cc2ncn(C(=O)c3ccc4c(c3)OCO4)c2cc1C,IC50,Prothrombin,5.76 µM (active)
CCN(c1ccc(NC(=O)COC(=O)/C=C/c2cccs2)cc1)C(C)C,IC50,[5],3.34 µM (active)
Cc1ccc(-n2c(C)c([N+](=O)[O-])c3ccc(O)c(CN(C)C)c32)cc1,AC50,HEK293,8.54 µM (active)
